Assay results from patent US9340590B2 (priority 2011, dated 2016).
Like-named read-outs stand apart in the source and are kept apart here. Positions of bridges follow the written chain, without caps; N, C: chain ends. Non-standard residues stand in square brackets, D forms with d. Residues, ends and D or L forms follow the SMILES beside them. Phe(4-I) = N[C@@H](Cc1ccc(I)cc1)C(=O)O; Gly(cPent) = N[C@H](C(=O)O)C1CCCC1; Cit = NC(=O)NCCC[C@H](N)C(=O)O

How the values were obtained:
Assay in all cases: cell-based
hNav1.5 = hNav1.5 (Homo sapiens, UniProt Q14524); conditions: IonWorks Quattro, read-out: IWQ Use Nav1.5
hNav1.5, sequence (Q14524 whole entry, looked up): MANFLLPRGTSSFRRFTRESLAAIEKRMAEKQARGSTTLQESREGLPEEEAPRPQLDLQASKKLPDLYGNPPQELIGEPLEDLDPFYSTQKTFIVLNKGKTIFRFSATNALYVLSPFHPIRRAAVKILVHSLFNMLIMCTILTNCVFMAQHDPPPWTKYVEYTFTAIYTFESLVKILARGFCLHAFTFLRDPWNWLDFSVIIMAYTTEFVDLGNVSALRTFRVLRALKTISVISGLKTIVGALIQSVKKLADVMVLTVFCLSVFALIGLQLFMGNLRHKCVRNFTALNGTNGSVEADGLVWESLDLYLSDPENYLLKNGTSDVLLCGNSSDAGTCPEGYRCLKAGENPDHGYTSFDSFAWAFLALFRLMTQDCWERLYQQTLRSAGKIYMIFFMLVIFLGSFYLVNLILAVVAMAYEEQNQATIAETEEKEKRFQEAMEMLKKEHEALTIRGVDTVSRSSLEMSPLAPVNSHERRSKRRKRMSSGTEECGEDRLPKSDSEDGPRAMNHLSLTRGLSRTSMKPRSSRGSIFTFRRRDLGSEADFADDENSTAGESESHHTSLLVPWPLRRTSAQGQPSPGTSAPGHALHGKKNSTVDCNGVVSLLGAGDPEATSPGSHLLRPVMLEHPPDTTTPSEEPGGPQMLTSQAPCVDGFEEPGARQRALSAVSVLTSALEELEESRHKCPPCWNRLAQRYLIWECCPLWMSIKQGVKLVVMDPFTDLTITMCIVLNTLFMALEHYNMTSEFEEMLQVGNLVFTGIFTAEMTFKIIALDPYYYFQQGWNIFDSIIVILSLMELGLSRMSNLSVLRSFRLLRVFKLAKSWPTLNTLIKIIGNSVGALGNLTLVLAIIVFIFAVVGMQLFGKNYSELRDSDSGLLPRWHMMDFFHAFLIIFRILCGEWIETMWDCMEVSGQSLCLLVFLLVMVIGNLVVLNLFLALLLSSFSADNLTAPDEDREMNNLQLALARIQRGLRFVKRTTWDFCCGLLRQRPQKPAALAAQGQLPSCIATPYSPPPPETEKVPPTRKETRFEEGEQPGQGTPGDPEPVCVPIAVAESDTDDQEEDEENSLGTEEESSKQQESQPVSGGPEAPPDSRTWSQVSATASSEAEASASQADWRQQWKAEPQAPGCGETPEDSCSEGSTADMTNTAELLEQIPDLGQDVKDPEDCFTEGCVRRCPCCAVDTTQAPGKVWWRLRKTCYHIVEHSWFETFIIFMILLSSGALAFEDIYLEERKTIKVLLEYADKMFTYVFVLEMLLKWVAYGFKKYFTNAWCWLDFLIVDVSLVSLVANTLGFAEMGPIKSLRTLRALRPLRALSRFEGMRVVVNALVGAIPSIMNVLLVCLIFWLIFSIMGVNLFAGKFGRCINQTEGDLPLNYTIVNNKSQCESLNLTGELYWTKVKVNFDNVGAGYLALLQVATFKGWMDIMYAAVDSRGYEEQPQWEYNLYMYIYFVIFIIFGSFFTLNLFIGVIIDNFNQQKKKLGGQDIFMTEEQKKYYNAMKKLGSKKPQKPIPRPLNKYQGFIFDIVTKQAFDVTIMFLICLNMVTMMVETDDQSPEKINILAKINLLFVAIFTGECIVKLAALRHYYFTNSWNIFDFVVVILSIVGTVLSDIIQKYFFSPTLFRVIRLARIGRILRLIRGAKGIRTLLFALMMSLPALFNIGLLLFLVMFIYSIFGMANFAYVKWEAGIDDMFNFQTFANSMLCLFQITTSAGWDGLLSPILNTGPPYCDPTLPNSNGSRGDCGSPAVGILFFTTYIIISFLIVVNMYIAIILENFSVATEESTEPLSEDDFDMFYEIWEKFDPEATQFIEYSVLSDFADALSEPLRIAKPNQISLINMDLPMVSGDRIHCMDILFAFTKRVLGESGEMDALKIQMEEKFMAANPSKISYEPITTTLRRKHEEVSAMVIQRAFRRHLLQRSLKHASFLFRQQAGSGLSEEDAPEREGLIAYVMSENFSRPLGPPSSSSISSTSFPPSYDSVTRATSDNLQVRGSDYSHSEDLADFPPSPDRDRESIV

hNav1.7 = hNav1.7 (Homo sapiens, UniProt Q15858); assay type: cell-based
hNav1.7, sequence (Q15858 whole entry, looked up): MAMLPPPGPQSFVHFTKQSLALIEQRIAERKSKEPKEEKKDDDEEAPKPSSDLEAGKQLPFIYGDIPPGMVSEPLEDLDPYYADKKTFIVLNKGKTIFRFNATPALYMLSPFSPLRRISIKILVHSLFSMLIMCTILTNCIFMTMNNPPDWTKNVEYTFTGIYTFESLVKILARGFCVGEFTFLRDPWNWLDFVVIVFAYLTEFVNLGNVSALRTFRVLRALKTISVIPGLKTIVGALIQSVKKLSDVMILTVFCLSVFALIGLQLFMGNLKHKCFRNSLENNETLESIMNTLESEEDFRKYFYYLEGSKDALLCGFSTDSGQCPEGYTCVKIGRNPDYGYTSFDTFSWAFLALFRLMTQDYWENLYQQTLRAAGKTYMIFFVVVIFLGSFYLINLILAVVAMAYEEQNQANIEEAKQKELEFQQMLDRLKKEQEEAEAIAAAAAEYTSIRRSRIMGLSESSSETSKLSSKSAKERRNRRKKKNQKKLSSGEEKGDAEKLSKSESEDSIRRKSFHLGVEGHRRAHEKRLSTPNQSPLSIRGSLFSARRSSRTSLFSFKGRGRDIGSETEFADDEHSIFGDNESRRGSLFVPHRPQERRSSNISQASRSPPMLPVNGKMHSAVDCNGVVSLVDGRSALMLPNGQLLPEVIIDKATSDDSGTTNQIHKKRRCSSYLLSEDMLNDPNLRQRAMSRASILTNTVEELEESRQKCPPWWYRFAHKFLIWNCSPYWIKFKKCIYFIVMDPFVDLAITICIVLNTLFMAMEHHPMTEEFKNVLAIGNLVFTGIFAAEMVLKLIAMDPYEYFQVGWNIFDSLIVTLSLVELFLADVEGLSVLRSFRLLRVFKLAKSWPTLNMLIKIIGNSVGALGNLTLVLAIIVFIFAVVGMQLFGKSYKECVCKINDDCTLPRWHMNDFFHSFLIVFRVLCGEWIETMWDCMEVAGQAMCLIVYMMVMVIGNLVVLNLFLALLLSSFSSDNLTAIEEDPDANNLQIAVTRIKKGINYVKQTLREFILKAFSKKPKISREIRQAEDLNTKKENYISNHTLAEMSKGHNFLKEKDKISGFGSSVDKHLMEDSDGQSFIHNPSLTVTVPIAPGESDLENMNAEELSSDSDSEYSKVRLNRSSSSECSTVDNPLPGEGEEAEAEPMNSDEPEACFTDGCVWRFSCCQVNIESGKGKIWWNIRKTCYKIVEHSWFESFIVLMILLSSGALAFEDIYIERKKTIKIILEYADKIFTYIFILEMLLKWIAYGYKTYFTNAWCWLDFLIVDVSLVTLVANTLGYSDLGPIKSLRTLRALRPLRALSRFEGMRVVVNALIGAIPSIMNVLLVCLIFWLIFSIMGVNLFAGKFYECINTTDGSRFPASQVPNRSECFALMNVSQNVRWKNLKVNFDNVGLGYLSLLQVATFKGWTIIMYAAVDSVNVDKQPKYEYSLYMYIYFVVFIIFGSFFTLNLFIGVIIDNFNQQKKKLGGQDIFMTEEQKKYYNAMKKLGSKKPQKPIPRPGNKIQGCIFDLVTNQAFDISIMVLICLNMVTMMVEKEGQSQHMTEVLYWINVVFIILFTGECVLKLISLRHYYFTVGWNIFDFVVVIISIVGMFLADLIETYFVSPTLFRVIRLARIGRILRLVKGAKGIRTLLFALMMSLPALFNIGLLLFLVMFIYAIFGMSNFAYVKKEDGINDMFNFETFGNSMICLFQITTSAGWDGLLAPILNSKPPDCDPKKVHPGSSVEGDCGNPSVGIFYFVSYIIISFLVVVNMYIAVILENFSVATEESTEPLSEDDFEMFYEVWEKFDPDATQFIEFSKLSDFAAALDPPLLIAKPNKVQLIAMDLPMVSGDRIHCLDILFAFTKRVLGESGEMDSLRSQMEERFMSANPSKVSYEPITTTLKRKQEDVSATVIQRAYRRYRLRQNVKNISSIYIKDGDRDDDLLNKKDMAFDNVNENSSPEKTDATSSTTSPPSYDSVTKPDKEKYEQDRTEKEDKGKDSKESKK

hNav1.3 = hNav1.3 (Homo sapiens, UniProt Q9NY46); conditions: IonWorks Quattro, read-out: IWQ Use Nav1.3
[1] = IonWorks Quattro, Use, read-out: IWQ Use Nav1.7
[2] = use-dependent protocol, hNav1.5
[3] = IonWorks Quattro, use-dependent protocol, hNav1.7, read-out: IWQ Use Nav1.7
[4] = use-dependent protocol, hNav1.3

`CC[C@H](C)[C@@H]1NC(=O)[C@@H]2CSSC[C@@H]3NC(=O)[C@H](C(C)C)NC(=O)[C@H](CC(C)C)NC(=O)[C@H](CC(N)=O)NC(=O)[C@@H]4CCCN4C(=O)[C@H](CCCNC(=N)N)NC(=O)[C@H](CSSC[C@H](NC(=O)[C@@H](N)CC(=O)O)C(=O)N[C@@H](CC(C)C)C(=O)NCC(=O)N[C@@H](Cc4ccccc4)C(=O)N[C@@H](CCSC)C(=O)N[C@@H](CCCNC(=N)N)C(=O)N[C@@H](CCCCN)C(=O)N2)NC(=O)[C@H](CSSC[C@@H](C(=O)N[C@@H](CCCCN)C(=O)N[C@@H](Cc2ccc(O)cc2)C(=O)N[C@H](C(=O)N[C@@H](Cc2ccccc2)C(N)=O)C(C)C)NC(=O)[C@H](Cc2c[nH]c4ccccc24)NC(=O)[C@H](CCCCN)NC(=O)[C@H](CCC(=O)O)NC(=O)[C@H]([C@@H](C)O)NC(=O)[C@H](CCCNC(=N)N)NC(=O)[C@H](CO)NC3=O)NC(=O)[C@H](CCCCN)NC(=O)[C@H](CC(=O)O)NC(=O)[C@H](CC(N)=O)NC(=O)[C@H](CC(=O)O)NC(=O)[C@@H]2CCCN2C1=O` [compound 29] (H-DCLGFMRKCIPDNDKCCRPNLVCSRTEKWCKYVF-NH2; disulfide 2-17, 9-23, 16-30) showed an IC50 (hNav1.5; Table 23, use, […]) of 15200 nM, an IC50 (hNav1.7; Table 23, IonWorks Quattro, use, […], read-out: IWQ Use Nav1.7) of 8540 nM and an IC50 (hNav1.3; Table 23, use, […]) of 12300 nM.

Work on `CC[C@H](C)[C@@H]1NC(=O)[C@@H]2CSSC[C@@H]3NC(=O)[C@H](C(C)C)NC(=O)[C@H](CC(C)C)NC(=O)[C@H](CC(N)=O)NC(=O)[C@@H]4CCCN4C(=O)[C@H](CCCCN)NC(=O)[C@H](CSSC[C@H](NC(=O)[C@@H](N)CC(=O)O)C(=O)N[C@@H](CC(C)C)C(=O)NCC(=O)N[C@@H](Cc4ccccc4)C(=O)N[C@@H](CCSC)C(=O)N[C@@H](CCCNC(=N)N)C(=O)N[C@@H](CCCCN)C(=O)N2)NC(=O)[C@H](CSSC[C@@H](C(=O)N[C@@H](CCCCN)C(=O)N[C@@H](Cc2ccc(O)cc2)C(=O)N[C@H](C(=O)N[C@@H](Cc2ccccc2)C(N)=O)C(C)C)NC(=O)[C@H](Cc2c[nH]c4ccccc24)NC(=O)[C@H](CCCCN)NC(=O)[C@H](Cc2cnc[nH]2)NC(=O)[C@H]([C@@H](C)O)NC(=O)[C@H](CCCNC(=N)N)NC(=O)[C@H](CO)NC3=O)NC(=O)[C@H](CCCCN)NC(=O)[C@H](CC(=O)O)NC(=O)[C@H](CC(N)=O)NC(=O)[C@H](CC(=O)O)NC(=O)[C@@H]2CCCN2C1=O` [compound 49] (H-DCLGFMRKCIPDNDKCCKPNLVCSRTHKWCKYVF-NH2; disulfide 2-17, 9-23, 16-30) yielded an IC50 (hNav1.5; Use) of 17600 nM, an IC50 (hNav1.7) of 300 nM and an IC50 (hNav1.3; Use) of 210 nM.

In the case of `CC[C@H](C)[C@@H]1NC(=O)[C@@H]2CSSC[C@@H]3NC(=O)[C@H](C(C)C)NC(=O)[C@H](CC(C)C)NC(=O)[C@H](CC(N)=O)NC(=O)[C@@H]4CCCN4C(=O)[C@H](CCCNC(=N)N)NC(=O)[C@H](CSSC[C@H](NC(=O)[C@@H](N)CC(=O)O)C(=O)N[C@@H](CC(C)C)C(=O)NCC(=O)N[C@@H](Cc4ccccc4)C(=O)N[C@@H](CCSC)C(=O)N[C@@H](CCCNC(=N)N)C(=O)N[C@@H](CCCCN)C(=O)N2)NC(=O)[C@H](CSSC[C@@H](C(=O)N[C@@H](CCCCN)C(=O)N[C@@H](Cc2ccc(O)cc2)C(=O)N[C@H](C(=O)N[C@@H](Cc2ccccc2)C(N)=O)C(C)C)NC(=O)[C@H](Cc2c[nH]c4ccccc24)NC(=O)[C@H](CCCCN)NC(=O)[C@H](Cc2cnc[nH]2)NC(=O)[C@H]([C@@H](C)O)NC(=O)[C@H](CCCNC(=N)N)NC(=O)[C@H](CO)NC3=O)NC(=O)[C@H](CCCCN)NC(=O)[C@H](CC(=O)O)NC(=O)[C@H](C)NC(=O)[C@H](CC(=O)O)NC(=O)[C@@H]2CCCN2C1=O` [compound 5] (H-DCLGFMRKCIPDADKCCRPNLVCSRTHKWCKYVF-NH2; disulfide 2-17, 9-23, 16-30), the IC50 (hNav1.5; Use) is reported as 8150 nM, the IC50 (hNav1.7; [1]) is reported as 170 nM and the IC50 (hNav1.3; Use) is reported as 160 nM.

For `CC[C@H](C)[C@@H]1NC(=O)[C@@H]2CSSC[C@@H]3NC(=O)[C@H](C(C)C)NC(=O)[C@H](CC(C)C)NC(=O)[C@H](CC(N)=O)NC(=O)[C@@H]4CCCN4C(=O)[C@H](CCCNC(=N)N)NC(=O)[C@H](CSSC[C@H](NC(=O)[C@@H](N)CC(=O)O)C(=O)N[C@@H](CC(C)C)C(=O)NCC(=O)N[C@@H](Cc4ccccc4)C(=O)N[C@@H](CCSC)C(=O)N[C@@H](CCCNC(=N)N)C(=O)N[C@@H](CCCCN)C(=O)N2)NC(=O)[C@H](CSSC[C@@H](C(=O)N[C@@H](CCCCN)C(=O)N[C@@H](Cc2ccc(O)cc2)C(=O)N[C@H](C(=O)N[C@@H](Cc2ccccc2)C(N)=O)C(C)C)NC(=O)[C@H](Cc2ccc(I)cc2)NC(=O)[C@H](CCCCN)NC(=O)[C@H](Cc2c[nH]cn2)NC(=O)[C@H]([C@@H](C)O)NC(=O)[C@H](CCCNC(=N)N)NC(=O)[C@H](CO)NC3=O)NC(=O)[C@H](CCCCN)NC(=O)[C@H](CC(=O)O)NC(=O)[C@H](CC(N)=O)NC(=O)[C@H](CC(=O)O)NC(=O)[C@@H]2CCCN2C1=O` [compound 358] (H-DCLGFMRKCIPDNDKCCRPNLVCSRTHK[Phe(4-I)]CKYVF-NH2; disulfide 2-17, 9-23, 16-30), the IC50 (hNav1.5; Table 24, use, […]) was 14900 nM, the IC50 (hNav1.7; Table 24, IonWorks Quattro, use, […], read-out: IWQ Use Nav1.7) was 1010 nM and the IC50 (hNav1.3; Table 24, use, […]) was 1270 nM.

`CC[C@H](C)[C@@H]1NC(=O)[C@@H]2CSSC[C@@H]3NC(=O)[C@H](C(C)C)NC(=O)[C@H](CC(C)C)NC(=O)[C@H](CC(N)=O)NC(=O)[C@@H]4CCCN4C(=O)[C@H](CCCNC(=N)N)NC(=O)[C@H](CSSC[C@H](NC(=O)[C@@H](N)CC(=O)O)C(=O)N[C@@H](CC(C)C)C(=O)NCC(=O)N[C@@H](C(C)C)C(=O)N[C@@H](CCSC)C(=O)N[C@@H](CCCNC(=N)N)C(=O)N[C@@H](CCCCN)C(=O)N2)NC(=O)[C@H](CSSC[C@@H](C(=O)N[C@@H](CCCCN)C(=O)N[C@@H](Cc2ccc(O)cc2)C(=O)N[C@H](C(=O)N[C@@H](Cc2ccccc2)C(N)=O)C(C)C)NC(=O)[C@H](Cc2c[nH]c4ccccc24)NC(=O)[C@H](CCCCN)NC(=O)[C@H](Cc2c[nH]cn2)NC(=O)[C@H]([C@@H](C)O)NC(=O)[C@H](CCCNC(N)=O)NC(=O)[C@H](CO)NC3=O)NC(=O)[C@H](CCCCN)NC(=O)[C@H](CC(=O)O)NC(=O)[C@H](CC(N)=O)NC(=O)[C@H](CC(=O)O)NC(=O)[C@@H]2CCCN2C1=O` [compound 713] (H-DCLGVMRKCIPDNDKCCRPNLVCS[Cit]THKWCKYVF-NH2; disulfide 2-17, 9-23, 16-30) gave an IC50 (hNav1.5; [2]) of 36000 nM, an IC50 (hNav1.7; [3]) of 830 nM and an IC50 (hNav1.3; [4]) of 4200 nM.

In the case of `CC[C@H](C)[C@@H]1NC(=O)[C@@H]2CSSC[C@@H]3NC(=O)[C@H](Cc4ccc(O)cc4)NC(=O)[C@H](CC(C)C)NC(=O)[C@H](CC(N)=O)NC(=O)[C@@H]4CCCN4C(=O)[C@H](CCCNC(=N)N)NC(=O)[C@H](CSSC[C@H](NC(=O)[C@@H](N)CC(=O)O)C(=O)N[C@@H](CC(C)C)C(=O)NCC(=O)N[C@@H](Cc4ccccc4)C(=O)N[C@@H](CCSC)C(=O)N[C@@H](CCCNC(=N)N)C(=O)N[C@@H](CCCCN)C(=O)N2)NC(=O)[C@H](CSSC[C@@H](C(=O)N[C@@H](CCCCN)C(=O)N[C@@H](Cc2ccc(O)cc2)C(=O)N[C@H](C(=O)N[C@@H](Cc2ccccc2)C(N)=O)C(C)C)NC(=O)[C@H](Cc2c[nH]c4ccccc24)NC(=O)[C@H](CCCCN)NC(=O)[C@H](Cc2c[nH]cn2)NC(=O)[C@H]([C@@H](C)O)NC(=O)[C@H](CCCNC(=N)N)NC(=O)[C@H](CO)NC3=O)NC(=O)[C@H](CCCCN)NC(=O)[C@H](CC(=O)O)NC(=O)[C@H](CC(N)=O)NC(=O)[C@H](CC(=O)O)NC(=O)[C@@H]2CCCN2C1=O` [compound 331] (H-DCLGFMRKCIPDNDKCCRPNLYCSRTHKWCKYVF-NH2; disulfide 2-17, 9-23, 16-30), the IC50 (hNav1.5; Use) is reported as 4260 nM, the IC50 (hNav1.7; [1]) is reported as 560 nM and the IC50 (hNav1.3; Use) is reported as 500 nM.

For `CC[C@H](C)[C@@H]1NC(=O)[C@@H]2CSSC[C@@H]3NC(=O)[C@H](C(C)C)NC(=O)[C@H](CC(C)C)NC(=O)[C@H](CC(N)=O)NC(=O)[C@@H]4CCCN4C(=O)[C@H](CCCNC(=N)N)NC(=O)[C@H](CSSC[C@H](NC(=O)[C@@H](N)CC(=O)O)C(=O)N[C@@H](CC(C)C)C(=O)NCC(=O)N[C@@H](C4CCCC4)C(=O)N[C@@H](Cc4ccccc4)C(=O)N[C@@H](CCCNC(=N)N)C(=O)N[C@@H](CCCCN)C(=O)N2)NC(=O)[C@H](CSSC[C@@H](C(=O)N[C@@H](CCCCN)C(=O)N[C@@H](Cc2ccc(O)cc2)C(=O)N[C@H](C(=O)N[C@@H](Cc2ccccc2)C(N)=O)C(C)C)NC(=O)[C@H](Cc2c[nH]c4ccccc24)NC(=O)[C@H](CCCCN)NC(=O)[C@H](Cc2c[nH]cn2)NC(=O)[C@H]([C@@H](C)O)NC(=O)[C@H](CCCNC(=N)N)NC(=O)[C@H](CO)NC3=O)NC(=O)[C@H](CCCCN)NC(=O)[C@H](CC(=O)O)NC(=O)[C@H](CC(N)=O)NC(=O)[C@H](CC(=O)O)NC(=O)[C@@H]2CCCN2C1=O` [compound 615] (H-DCLG[Gly(cPent)]FRKCIPDNDKCCRPNLVCSRTHKWCKYVF-NH2; disulfide 2-17, 9-23, 16-30), the IC50 (hNav1.5; [2]) was 5600 nM, the IC50 (hNav1.7; [3]) was 35 nM and the IC50 (hNav1.3; [4]) was 120 nM.
